Like-named read-outs stand apart in the source and are kept apart here.
Experiments:
[1] = target: T1, recombinant MARK4 (Homo sapiens, UniProt Q96L34); experiment: Fluorescence binding (quenching, modified Stern-Volmer)
T1 construct: made in house; host or cells: bacterial cells (Luria-Bertani broth, IPTG induction)
T1 sequence (Q96L34 1-752): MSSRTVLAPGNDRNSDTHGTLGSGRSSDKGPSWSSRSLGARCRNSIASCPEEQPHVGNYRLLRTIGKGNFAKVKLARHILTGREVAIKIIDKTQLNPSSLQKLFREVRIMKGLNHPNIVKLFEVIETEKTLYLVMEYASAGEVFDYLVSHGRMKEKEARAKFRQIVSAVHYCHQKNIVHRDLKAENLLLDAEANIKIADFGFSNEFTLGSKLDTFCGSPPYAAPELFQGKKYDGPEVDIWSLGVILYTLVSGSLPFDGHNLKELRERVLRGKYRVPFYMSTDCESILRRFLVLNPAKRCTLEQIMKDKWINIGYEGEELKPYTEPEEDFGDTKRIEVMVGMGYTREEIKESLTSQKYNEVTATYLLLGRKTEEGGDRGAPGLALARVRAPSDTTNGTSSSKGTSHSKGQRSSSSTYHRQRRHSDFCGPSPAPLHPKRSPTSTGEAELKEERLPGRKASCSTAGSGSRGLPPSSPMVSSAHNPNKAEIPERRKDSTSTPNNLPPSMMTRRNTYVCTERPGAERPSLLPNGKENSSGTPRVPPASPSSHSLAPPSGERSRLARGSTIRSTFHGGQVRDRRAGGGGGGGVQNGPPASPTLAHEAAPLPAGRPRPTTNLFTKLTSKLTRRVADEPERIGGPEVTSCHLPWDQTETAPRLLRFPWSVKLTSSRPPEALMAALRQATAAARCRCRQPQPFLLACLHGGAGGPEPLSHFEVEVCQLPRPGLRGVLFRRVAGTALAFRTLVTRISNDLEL
Experimental: To determine the binding affinities of the synthesized acridones with MARK4, we used fluorescence emission spectra measurements. Protein sample was excited at 280 nm and emission was measured in 300–400 nm range with increasing concentrations of each acridone derivative (0–100 µM). A significant decrease in fluorescence intensity of MARK4 with increasing concentrations of each compound was fitted in the modified Stern-Volmer equation to calculate the binding constant, Ka and the number of binding sites per protein molecule (n). All the synthesized acridones have been screened (Supplementary Fig. S6, S7 and Table S3) and those with the highest affinity have been selected (compounds 5, 7b, 7d, 7f and 7h) for further evaluation (Fig. 3). The binding constants of compound 5, 7b, 7d, 7f and 7h were estimated as 6.3 × 10^4 M^−1, 1.0 × 10^6 M^−1, 1.0 × 10^6 M^−1, 1.9 × 10^6 M^−1, and 3.1 × 10^5 M^−1, respectively (Fig. 3).
Figure 3 Fluorescence binding studies of compound 5, 7b, 7d, 7f and 7h with MARK4. (A) Fluorescence emission spectra of MARK4 (10 µM) with increasing concentrations of the respective compound (5, 7b, 7d, 7f and 7h). Excitation wavelength was fixed at 280 nm and emission was recorded in 300–400 nm range. (B) Modified Stern-Volmer plot obtained from fluorescence quenching of MARK4 by compound 5, 7b, 7d, 7f and 7h, respectively. It was used to calculate binding affinity (Ka) and number of binding sites (n).
Binding affinities of synthesized acridone derivatives with recombinant MARK4 was carried out by observing the fluorescence intensity change of emission spectrum of MARK4 by following our previously published protocol[44],[45]. Each titration of protein was performed in triplicates and the average was taken for analysis. A significant decreased in fluorescence intensity of protein with increase in the concentration of acridone derivatives were used as the criteria for deducing the binding constant (Ka) as well as number of binding sites (n) present on the protein molecule using the modified Stern-Volmer equation[46]:1 log(Fo−F)/F=logKa+nlog[L] where, Fo = Fluorescence intensity of native protein, F = Fluorescence intensity of protein in the presence of ligand, Ka = Binding constant, n = number of binding sites, L = concentration of ligand. The values for Ka and n were derived from the intercept and slope, respectively.

[2] = tested on: MCF-7 cells; experiment: Annexin-V apoptosis assay by flow cytometry; format: cell-based, human; details: IC50 concentration, 24 h, annexin-V staining
Experimental: Evasion of apoptosis is a striking hallmark of cancerous cells, it is an essential process that regulates abnormal growth of cells, but compromised signaling helps the cancerous cells to escape apoptosis. MARK4 overexpression also supports the growth and evasion of cancerous cells. Thus, the probability of apoptosis induction by inhibiting MARK4 was studied. The MCF-7 cells were serum starved and treated with IC50 concentration of each acridone derivative for 24 h and subsequently annexin-V staining was used to assess the apoptotic potential of these compounds.
Figure 6 MARK4 inhibition by selected acridone derivatives induces apoptosis, elicited oxidative stress by inducing ROS production in MCF-7 cells. MCF-7 cells were treated with IC50 concentrations of each compound for 24 h and processed for apoptosis analysis using Annexin V-7AAD apoptosis kit by flow cytometry. (A) Quadrants showing the anti-FITC-Annexin-V stained cells after the treatment of each compound as indicated. (B) Bar graphs represents the percentage of apoptotic MCF-7 cells attained with Annexin-V for duplicate measurements ± SD. **p < 0.001, as compared to control (untreated cells). (For anticancer activities paclitaxel has been taken as positive control). (C) Histogram showing the fluorescence emission intensity of DCF as measured by flow cytometry, MCF-7 cells were treated with IC50 concentrations of each compound for 5–6 h and processed for ROS measurements using DCFDA staining and were quantified by flow cytometry. (D) Representative images of MCF-7 cells stained with DCFDA captured on fluorescence microscope (20 X original magnification) for the assessment of ROS after the treatment of respective compound and intensity of green color represents the levels of ROS.
Annexin-V staining was used to analyse the apoptotic potential of synthesized acridone derivatives as described previously[47],[48]. Briefly, MCF-7 cells were dosed with IC50 concentration of selected acridone derivative for 24 h at 37 °C. The control cells were treated with media only. After 24 h treatment, nearly 2.0–2.5 × 10^6 cells were trypsinized and collected by centrifuging the cell suspension at 1800 rpm for 4 min. Collected cells were washed two times with 5 ml of PBS. Finally, cells were stained with FITC labeled Annexin-V antibodies using FITC-Annexin-V kit according to the manufacturer’s guidelines (BD-Biosciences, USA). Approximately, 10,000 events were analyzed for each sample through flow cytometry on BD LSR II Flow Cytometry Analyzer and FlowJo.

[3] = Table S3, fluorescence binding, read-out: Binding affinity (Ka) (converted)

Kd [1, 3] [nM]	Kd ([1]; fluorescence quenching, MARK4 10 µM, excitation 280 nm, read-out: binding constant, Ka (converted)) [nM]	Compound	apoptosis induced in MCF-7 cells [2] [%]
1000	–	Cc1ccc2c(c1)c(=O)c1ccccc1n2CC(=O)NCc1ccccc1 [Compound 7b, N-benzyl-2-(2-methyl-9-oxoacridin-10(9H)-yl)acetamide]	69.23
3230	–	COc1ccccc1NC(=O)Cn1c2ccccc2c(=O)c2cc(C)ccc21 [Compound 7h, N-(2-methoxyphenyl)-2-(2-methyl-9-oxoacridin-10(9H)-yl)acetamide]	21.53

The next lines start with the compound.

Compound	Kd [1, 3] [nM]	Kd ([1]; fluorescence quenching, MARK4 10 µM, excitation 280 nm, read-out: binding constant, Ka (converted)) [nM]	apoptosis induced in MCF-7 cells [2] [%]
COc1ccc(CNC(=O)Cn2c3ccccc3c(=O)c3cc(C)ccc32)cc1 [Compound 7d, N-(4-methoxybenzyl)-2-(2-methyl-9-oxoacridin-10(9H)-yl)acetamide]	1000	–	43.10
Cc1ccc(NC(=O)Cn2c3ccccc3c(=O)c3cc(C)ccc32)cc1 [Compound 7f, 2-(2-Methyl-9-oxoacridin-10(9H)-yl)-N-(p-tolyl)acetamide]	526	–	41.35
COC(=O)Cn1c2ccccc2c(=O)c2cc(C)ccc21 [Compound 5, Methyl 2-(2-methyl-9-oxoacridin-10(9H)-yl)acetate]	–	15900	17.91

Source: article PMC6368574, “Probing the Inhibition of Microtubule Affinity Regulating Kinase 4 by N-Substituted Acridones” (Scientific Reports, 2019)
